# Reference: US7601716B2, “Pyridopyrazines and derivatives thereof as ALK and c-Met inhibitors” (Cephalon, Inc., priority 2006, dated 2009)
# Structures can show the parent of a compound that is named as a salt.
# Columns and labels:
# [1] = target: T1, c-Met (cytoplasmic domain) (Homo sapiens, UniProt P08581); experiment: c-Met Kinase Assay (ELISA/TRF, PLC-γ substrate); assay type: biochemical; conditions: 3 μM ATP (Km level); read-out: c-Met Kinase Inhibition (IC50)
# T1 construct: Reactions were initiated with 30 ng/mL c-Met (cytoplasmic domain, Invitrogen Corporation #PV3143); purchased Invitrogen Corporation PV3143
# Outline: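 Readout is TRF of europium anti-phosphotyrosine (PT66) bound to GST–PLC-γ substrate coated at 10 μg/mL, after a 15 min, 37 °C reaction started with 30 ng/mL c-Met cytoplasmic domain. Percent inhibition plotted against log compound concentration and fitted (variable slope) for IC50.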
# [2] = target: baculovirus-expressed ALK (Homo sapiens, UniProt Q9UM73); experiment: ALK Kinase Assay (ELISA/TRF, PLC-γ substrate); assay type: biochemical; conditions: read-out: ALK Kinase Inhibition (IC50); further: 1 µM ATP (Km level)
# Outline: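 Read-out: TRF of europium-labeled anti-phosphotyrosine antibody bound to phosphorylated GST–PLC-γ coated at 10 μg/mL. Kinase step used 30 ng/ml ALK, 37° C, 15 minutes. IC50 values fitted by nonlinear sigmoidal dose-response (variable slope).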
# [3] = target: T2, NPM-ALK (Homo sapiens, UniProt Q9UM73); experiment: ALK Cellular Assay (phospho-NPM-ALK immunoblot / ALK tyrosine phosphorylation ELISA); assay type: cell-based; conditions: for inhibition at 1 µM: NPM-ALK, 1 μM compound, read-out: ALK Cellular Activity Inhibition Score at 1 μM
# T2 construct: a fusion protein consisting of nucleophosmin (NMP) and the intracellular domain of ALK; the other entry of the earlier key: NPM1 (P06748, Nucleophosmin)
# Procedure: Immunoblotting of phospho-NPM-ALK and total NPM-ALK from cell lysates was carried out according to the protocols provided by the antibody suppliers. In brief, after treatment of Example compounds, cells were lysed in Frak lysis buffer [10 mM Tris, pH 7.5, 1% Triton X-100, 50 mM sodium chloride, 20 mM sodium fluoride, 2 mM sodium pyrophosphate, 0.1% BSA, plus freshly prepared 1 mM activated sodium vanadate, 1 mM dithiothreitol (#165680050, ARCOS Organics, Geel, Belgium), and 1 mM PMSF (#837091, Boehringer Mannheim Biochemicals, Indianapolis, Ind.), protease inhibitors cocktail III (#539134-1Set, Calbiochem, 1:100 dilution)]. After brief sonication, the lysates were cleared by centrifugation, mixed with sample buffer and subjected to SDS-PAGE. Following transfer to membranes, the membranes were blotted with either rabbit phospho-NPM-ALK(Y664) (Cat^#3341) or ALK antibody (Cat^#3342) from Cell Signaling Technology (Beverly, Mass.), and then the HRP-conjugated goat anti-rabbit antibodies (Santa Cruz, Calif.) after washed in TBS/0.2% Tween-20. The protein bands were visualized with ECL Western Blotting detection reagents (RPN2106, Amersham Biosciences, Buckinghamshire, UK) and quantitated with gel-pro analyzer 3.1 software.
# To measure ALK tyrosine phosphorylation in cells with an ELISA assay, fluoronunc plates (Cat^#437796, Nalge Nunc, Rochester, N.Y.) were pre-coated with goat anti-mouse IgG, and incubated with the capture mouse ALK antibody (Cat^#35-4300, Zymed, Seattle, Wash.) diluted 1:1000 in Superblock (Pierce, Rockford, Ill.). Following blocking, cell lysates were added to plates and incubated overnight at 4° C. Plates were incubated with the detecting antibody, anti-phospho-ALK (Y664) (Cell Signaling Technology), diluted at 1:2000, followed by incubation with goat anti-rabbit-IgG alkaline phosphatase to amplify the detection. Wells were exposed to the fluorogenic substrate 4-MeUP (#3368-04-5, Calbiochem) and the signal quantified using a CytoFluor® (series 4000) Fluorescence Multi-Well Plate Reader (Applied Biosystems, Foster City, Calif.).
# T1 sequence (P08581 956-1390 limits assumed): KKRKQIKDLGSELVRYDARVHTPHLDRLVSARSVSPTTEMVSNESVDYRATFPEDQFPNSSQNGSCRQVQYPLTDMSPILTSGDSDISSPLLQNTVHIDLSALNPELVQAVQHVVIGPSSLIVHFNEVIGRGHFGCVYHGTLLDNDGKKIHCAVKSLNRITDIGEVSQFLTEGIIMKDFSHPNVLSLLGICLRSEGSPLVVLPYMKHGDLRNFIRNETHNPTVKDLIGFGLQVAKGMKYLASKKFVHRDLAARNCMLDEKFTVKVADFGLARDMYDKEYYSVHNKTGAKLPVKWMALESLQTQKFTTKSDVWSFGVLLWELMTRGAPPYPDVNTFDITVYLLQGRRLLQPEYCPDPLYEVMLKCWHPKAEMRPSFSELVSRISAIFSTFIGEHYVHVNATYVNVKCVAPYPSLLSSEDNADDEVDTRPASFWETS
# Chain of baculovirus-expressed ALK (Q9UM73 19-1620): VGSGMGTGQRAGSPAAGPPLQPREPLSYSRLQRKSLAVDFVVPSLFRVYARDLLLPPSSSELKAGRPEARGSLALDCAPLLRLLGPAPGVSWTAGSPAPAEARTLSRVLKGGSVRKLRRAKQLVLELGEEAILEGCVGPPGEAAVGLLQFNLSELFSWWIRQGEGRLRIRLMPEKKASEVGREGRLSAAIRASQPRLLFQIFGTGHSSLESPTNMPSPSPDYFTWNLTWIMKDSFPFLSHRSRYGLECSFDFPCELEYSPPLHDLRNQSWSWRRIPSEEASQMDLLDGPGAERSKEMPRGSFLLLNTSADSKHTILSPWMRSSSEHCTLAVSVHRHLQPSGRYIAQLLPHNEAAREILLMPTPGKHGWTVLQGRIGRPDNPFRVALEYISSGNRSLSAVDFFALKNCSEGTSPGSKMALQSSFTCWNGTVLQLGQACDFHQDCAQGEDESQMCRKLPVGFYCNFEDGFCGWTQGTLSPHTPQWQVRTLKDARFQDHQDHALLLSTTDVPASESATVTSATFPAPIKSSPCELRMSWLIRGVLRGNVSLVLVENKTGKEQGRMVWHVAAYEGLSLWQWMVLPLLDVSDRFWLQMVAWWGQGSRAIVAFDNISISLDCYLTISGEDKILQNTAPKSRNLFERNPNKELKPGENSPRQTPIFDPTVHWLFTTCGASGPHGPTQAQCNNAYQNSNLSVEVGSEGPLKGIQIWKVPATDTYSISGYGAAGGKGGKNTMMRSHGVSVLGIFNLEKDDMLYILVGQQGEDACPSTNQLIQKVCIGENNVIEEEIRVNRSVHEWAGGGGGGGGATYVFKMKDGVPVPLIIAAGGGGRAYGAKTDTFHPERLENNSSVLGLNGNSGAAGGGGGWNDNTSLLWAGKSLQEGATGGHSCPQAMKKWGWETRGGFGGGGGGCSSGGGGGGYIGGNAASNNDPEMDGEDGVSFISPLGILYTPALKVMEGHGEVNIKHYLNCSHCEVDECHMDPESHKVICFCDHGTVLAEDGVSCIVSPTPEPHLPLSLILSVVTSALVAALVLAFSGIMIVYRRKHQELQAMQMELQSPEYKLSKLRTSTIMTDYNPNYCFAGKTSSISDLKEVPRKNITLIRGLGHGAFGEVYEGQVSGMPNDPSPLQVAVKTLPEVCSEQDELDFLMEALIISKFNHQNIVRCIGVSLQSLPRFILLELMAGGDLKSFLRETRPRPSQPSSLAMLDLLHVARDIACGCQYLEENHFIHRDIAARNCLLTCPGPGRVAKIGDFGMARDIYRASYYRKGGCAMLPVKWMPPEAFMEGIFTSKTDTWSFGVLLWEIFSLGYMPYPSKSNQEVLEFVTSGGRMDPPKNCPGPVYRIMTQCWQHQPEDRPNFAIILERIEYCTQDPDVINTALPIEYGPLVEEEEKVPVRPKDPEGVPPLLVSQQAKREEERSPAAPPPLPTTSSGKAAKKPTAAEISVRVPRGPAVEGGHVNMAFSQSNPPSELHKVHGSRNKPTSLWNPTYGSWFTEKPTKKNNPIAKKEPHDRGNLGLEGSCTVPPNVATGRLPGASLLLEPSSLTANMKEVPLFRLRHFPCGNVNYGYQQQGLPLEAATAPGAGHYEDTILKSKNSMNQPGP
# T2 sequence (Q9UM73 with tags, fused parts or gaps): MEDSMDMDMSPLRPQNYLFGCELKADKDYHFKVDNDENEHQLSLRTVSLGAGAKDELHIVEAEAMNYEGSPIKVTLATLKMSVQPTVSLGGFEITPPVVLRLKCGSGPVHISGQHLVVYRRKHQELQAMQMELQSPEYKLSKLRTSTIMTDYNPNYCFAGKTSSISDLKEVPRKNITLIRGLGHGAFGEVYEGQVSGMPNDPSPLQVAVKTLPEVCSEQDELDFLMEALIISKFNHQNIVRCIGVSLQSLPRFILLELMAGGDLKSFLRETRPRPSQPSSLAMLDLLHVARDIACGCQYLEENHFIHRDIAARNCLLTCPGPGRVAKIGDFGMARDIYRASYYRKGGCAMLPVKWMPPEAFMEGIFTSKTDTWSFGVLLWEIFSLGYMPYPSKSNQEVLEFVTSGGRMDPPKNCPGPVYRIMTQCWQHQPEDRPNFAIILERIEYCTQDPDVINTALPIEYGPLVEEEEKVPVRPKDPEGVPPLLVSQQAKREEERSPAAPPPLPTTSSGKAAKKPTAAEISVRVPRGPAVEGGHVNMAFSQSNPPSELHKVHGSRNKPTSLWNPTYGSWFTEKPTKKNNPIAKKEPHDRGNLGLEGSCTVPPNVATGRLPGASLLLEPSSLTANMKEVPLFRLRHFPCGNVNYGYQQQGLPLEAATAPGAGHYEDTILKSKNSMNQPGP
compound,measurement,setting,value
"O=C(c1ccc(-c2cnc3c(c2)N(Cc2cc(F)ccc2F)CCN3)cc1)N1CCC[C@H]1CN1CCCC1 [Example 65, {4-[1-(2,5-Difluorobenzyl)-1,2,3,4-tetrahydropyrido[2,3-b]pyrazin-7-yl]phenyl}-((S)-2-((pyrrolidin-1-yl)methyl)pyrrolidin-1-yl)methanone]",IC50,[1],1 to 10 µM
same,melting point,,143 to 144 °C
same,IC50,[2],< 0.1 µM
same,IC50,[3],≤ 0.25 µM
"O=C(NCCN1CCCC1)c1ccc(-c2cnc3c(c2)N(Cc2cc(F)ccc2F)C(=O)CN3)cc1 [Example 58, 4-[1-(2,5-Difluorobenzyl)-2-oxo-1,2,3,4-tetrahydropyrido[2,3-b]pyrazin-7-yl]-N-(2-pyrrolidin-1-yl-ethyl)benzamide]",IC50,[1],10 to 100 µM
same,melting point,,235 °C (dec.)
same,IC50,[2],0.1 to 1 µM
same,inhibition at 1 µM,[3],0 to 25%
"O=C(c1ccc(-c2cnc3c(c2)N(Cc2cc(F)ccc2F)CCN3)cc1)N1CCC(N2CCCC2)CC1 [Example 66, {4-[1-(2,5-Difluorobenzyl)-1,2,3,4-tetrahydropyrido[2,3-b]pyrazin-7-yl]phenyl}-(4-(pyrrolidin-1-yl)piperidin-1-yl)methanone]",IC50,[1],1 to 10 µM
same,melting point,,202 to 204 °C
same,IC50,[2],< 0.1 µM
same,IC50,[3],≤ 0.25 µM
"O=C(c1ccc(-c2cnc3c(c2)N(Cc2cc(Cl)ccc2Cl)C(=O)CN3)cc1)N1CCC(N2CCCC2)CC1 [Example 156, 1-(2,5-Dichlorobenzyl)-7-[4-(4-(pyrrolidin-1-yl)piperidine-1-carbonyl)phenyl]-3,4-dihydro-1H-pyrido[2,3-b]pyrazin-2-one]",IC50,[1],0.1 to 1 µM
same,melting point,,> 200 °C
same,IC50,[2],< 0.1 µM
same,IC50,[3],0.251 to 0.5 µM
"O=C1CNc2ncc(-c3ccc(C(=O)N4CCC[C@H]4CN4CCCC4)cc3)cc2N1Cc1cc(F)ccc1F [Example 57, 1-(2,5-Difluorobenzyl)-7-[4-((S)-2-[(pyrrolidin-1-yl)methyl]pyrrolidine-1-carbonyl)phenyl]-3,4-dihydro-1H-pyrido[2,3-b]pyrazin-2-one]",IC50,[1],0.1 to 1 µM
same,melting point,,125 °C
same,IC50,[2],0.1 to 1 µM
same,inhibition at 1 µM,[3],0 to 25%
"CN1CCN(c2ncc(-c3cnc4c(c3)N(Cc3c(F)ccc(F)c3Cl)CCN4)cn2)CC1 [Example 106, 1-(2-Chloro-3,6-difluorobenzyl)-7-[2-(4-methylpiperazin-1-yl)-pyrimidin-5-yl]-1,2,3,4-tetrahydropyrido[2,3-b]pyrazine]",IC50,[1],1 to 10 µM
same,melting point,,194 to 195 °C
same,IC50,[2],< 0.1 µM
same,IC50,[3],≤ 0.25 µM
"FC(F)(F)c1ccc(Cl)cc1CN1CCNc2ncc(-c3ccnc(N4CCNCC4)c3)cc21 [Example 198, 1-[5-Chloro-2-(trifluoromethyl)benzyl]-7-(2-piperazin-1-yl-pyridin-4-yl)-1,2,3,4-tetrahydro-pyrido[2,3-b]pyrazine]",IC50,[1],0.1 to 1 µM
same,melting point,,189 °C
same,IC50,[2],< 0.1 µM
same,IC50,[3],≤ 0.25 µM
"FC(F)(F)c1ccc(Cl)cc1CN1CCNc2ncc(-c3cn[nH]c3)cc21 [Example 200, 1-[5-Chloro-2-(trifluoromethyl)benzyl]-7-(1H-pyrazol-4-yl)-1,2,3,4-tetrahydro-pyrido[2,3-b]pyrazine]",IC50,[1],1 to 10 µM
same,melting point,,271 °C
same,IC50,[2],0.1 to 1 µM
same,IC50,[3],0.751 to 1 µM
"O=C(O)c1ccc(-c2cnc3c(c2)N(Cc2c(F)ccc(F)c2Cl)C(=O)CN3)cc1 [Example 6, 4-[1-(2-Chloro-3,6-difluorobenzyl)-2-oxo-1,2,3,4-tetrahydropyrido[2,3-b]pyrazin-7-yl]benzoic acid]",IC50,[1],10 to 100 µM
same,melting point,,> 300 °C
same,IC50,[2],0.1 to 1 µM
same,inhibition at 1 µM,[3],0 to 25%
"Fc1ccc(F)c(CN2CCNc3ncc(-c4ccc(N5CCOCC5)nc4)cc32)c1Cl [Example 105, 1-(2-Chloro-3,6-difluorobenzyl)-7-(6-morpholin-4-yl-pyridin-3-yl)-1,2,3,4-tetrahydropyrido[2,3-b]pyrazine]",IC50,[1],1 to 10 µM
same,IC50,[2],< 0.1 µM
same,IC50,[3],0.751 to 1 µM
"CC(=O)N1CCN(c2cc(-c3cnc4c(c3)N(Cc3cc(Cl)ccc3C(F)(F)F)CCN4)ccn2)CC1 [Example 199, 1-[4-(4-{1-[5-Chloro-2-(trifluoromethyl)benzyl]-1,2,3,4-tetrahydro-pyrido[2,3-b]pyrazin-7-yl}pyridin-2-yl)piperazin-1-yl]ethanone]",IC50,[1],1 to 10 µM
same,melting point,,241 °C
same,IC50,[2],< 0.1 µM
same,IC50,[3],≤ 0.25 µM
"CC(c1cc(F)ccc1F)N1CCNc2ncc(-c3ccc(C(=O)N4CCC[C@H]4CN4CCCC4)cc3)cc21 (stereo partly drawn) [Example 154, S-(4-{1-[1-(2,5-Difluorophenyl)ethyl]-1,2,3,4-tetrahydropyrido[2,3-b]pyrazin-7-yl}phenyl)-{2-[(pyrrolidin-1-yl)methyl]pyrrolidin-1-yl}methanone]",IC50,[1],10 to 100 µM
same,IC50,[2],< 0.1 µM
same,IC50,[3],0.251 to 0.5 µM
"O=C(c1ccc(-c2cnc3c(c2)N(Cc2ccccc2)CCN3)cc1)N1CCC[C@H]1CN1CCCC1 [Example 38, [4-(1-Benzyl-1,2,3,4-tetrahydropyrido[2,3-b]pyrazin-7-yl)phenyl]-((S)-2-pyrrolidinylmethylpyrrolidin-1-yl)methanone, trifluoroacetic acid salt]",IC50,[1],0.1 to 1 µM
same,IC50,[2],0.1 to 1 µM
same,IC50,[3],0.501 to 0.75 µM
"O=C1CNc2ncc(-c3ccc(C(=O)N4CCC[C@H]4CN4CCCC4)cc3)cc2N1Cc1c(Cl)cccc1Cl [Example 141, S-1-(2,6-Dichlorobenzyl)-7-[4-((2-pyrrolidin-1-yl)methylpyrrolidine-1-carbonyl)phenyl]-3,4-dihydro-1H-pyrido[2,3-b]pyrazin-2-one]",IC50,[1],1 to 10 µM
same,melting point,,188 °C
same,IC50,[2],0.1 to 1 µM
same,inhibition at 1 µM,[3],51 to 75%
"O=C1CNc2ncc(-c3ccc(NS(=O)(=O)CCN4CCCC4)cc3)cc2N1Cc1cc(F)ccc1F [Example 48, 2-Pyrrolidin-1-yl-ethanesulfonic acid{4-[1-(2,5-difluorobenzyl)-2-oxo-1,2,3,4-tetrahydropyrido[2,3-b]pyrazin-7-yl]phenyl}-amide]",IC50,[1],1 to 10 µM
same,melting point,,> 300 °C
same,IC50,[2],0.1 to 1 µM
same,inhibition at 1 µM,[3],26 to 50%
"Fc1ccc(F)c(CN2CCNc3ncc(-c4cccc(N5CCOCC5)c4)cc32)c1Cl [Example 189, 1-(2-Chloro-3,6-difluorobenzyl)-7-(3-morpholin-4-yl-phenyl)-1,2,3,4-tetrahydropyrido[2,3-b]pyrazine]",IC50,[1],0.1 to 1 µM
same,IC50,[2],< 0.1 µM
same,IC50,[3],≤ 0.25 µM
"O=S(=O)(CCN1CCCC1)Nc1ccc(-c2cnc3c(c2)N(Cc2cc(F)ccc2F)CCN3)cc1 [Example 51, 2-Pyrrolidin-1-yl-ethanesulfonic acid{4-[1-(2,5-difluorobenzyl)-1,2,3,4-tetrahydropyrido[2,3-b]pyrazin-7-yl]phenyl}-amide]",IC50,[1],10 to 100 µM
same,IC50,[2],0.1 to 1 µM
same,inhibition at 1 µM,[3],26 to 50%
